Results reported in patent US8076375B2 (priority 2005, dated 2011).
Values joined by “and” are separate entries in the source; they are usually repeats but may differ in a detail not shown here. Identical values can stand only once. “Also recorded” adds a separate entry of the source. Like-named read-outs stand apart in the source and are kept apart here.

Tests used:
wild-type vaccinia virus = assay: microbe, parasite or virus in culture; type: cell-based; conditions: for inhibition at 100 µM: Orthopoxvirus vaccinia, HeLa
[1] = system: Lck (activated F505 form); type: biochemical; conditions: for Effect on Lck activity (in words): 10 μM
[2] = molecular target: vaccinia virus B1 kinase (GST-B1) (Vaccinia virus, UniProt P20505); assay: biochemical; type: biochemical; conditions: for remaining activity at 10 µM: read-out: Percent activity remaining at 10 μM, B1; for inhibition at 10 µM: read-out: Inhibition of GST-B1 (of the control value)
[3] = mouse, in vivo, cited from earlier work
[4] = system: ts2 and ts25 vaccinia virus mutants; type: cell-based
[5] = system: vesicular stomatitis virus (VSV); type: cell-based

O=S(=O)(O)c1ccc(NN(c2c(O)ccc3ccccc23)S(=O)(=O)O)cc1 [Compound 9600-Q, 4-[N′-(2-hydroxynaphthalen-1-yl)-N′-sulfo-hydrazino]benzenesulfonic acid]
Effect on virus growth in HeLa cell culture (in words) (wild-type vaccinia virus): no apparent effect | Percent Lck activity remaining [1]: 53 ± 18% | Effect on Lck activity (in words) [1]: minimally inhibited | Effect on B1 kinase activity in vitro (in words) [2]: inhibiting B1 almost not at all | remaining activity at 10 µM [2]: 93 ± 2%

O=C1c2ccccc2C(=O)c2c(NC3CCCCC3)ccc(Nc3ccc(S(=O)(=O)O)cc3)c21 [Compound 128437-O, 4-(4-cyclohexylamino-9,10-dioxo-anthracen-1-yl)aminobenzenesulfonic acid]
Effect on growth of wild-type vaccinia virus (in words) (wild-type vaccinia virus): inhibited the growth | Percent Lck activity remaining [1]: 88% | remaining activity at 10 µM [2]: 47%

O=C(O)C=Cc1c2ccc(=O)c(O)c-2oc2c(O)c(O)ccc12 [Compound 119911-V, 3-(4,5,6-trihydroxy-3-oxo-xanthen-9-yl)prop-2-enoic acid]
Effect on virus growth in HeLa cell culture (in words) (wild-type vaccinia virus): no apparent effect | Toxic effects in mammals [3]: no toxic effects were observed | Percent Lck activity remaining [1]: 70% | IC50 [2]: 3 µM | inhibition at 10 µM [2]: ≥ 87% | remaining activity at 10 µM [2]: 0%

O=C(O)c1cc2c(cc1S(=O)(=O)O)C1C(C3C2C2(Cl)C(Cl)=C(Cl)C3(Cl)C2(Cl)Cl)C2(Cl)C(Cl)=C(Cl)C1(Cl)C2(Cl)Cl (stereo not drawn) [Compound 270718-R, 3-sulfo-2-naphthoic acid-bis(hexachlorocyclopentadiene) adduct]
Activity under reduced-serum conditions relative to 10% serum (wild-type vaccinia virus): approximately four-fold | Effect on growth of wild-type vaccinia virus (in words) (wild-type vaccinia virus): inhibited the growth | Effect on growth of wild-type vaccinia virus, FIG. 1 (in words) (wild-type vaccinia virus): inhibited the growth | Inhibition of growth of wild-type vaccinia virus (wild-type vaccinia virus): 90% and 99% | inhibition at 100 µM (wild-type vaccinia virus; read-out: Inhibition of growth of wild-type vaccinia virus, example of FIG. 1): 93% | inhibition at 100 µM (wild-type vaccinia virus; read-out: Inhibition of wild-type vaccinia virus): 84% | Toxicity in mice ([3]; 200 mg/kg): No toxicity | Toxic effects in mammals [3]: no toxic effects were observed | Effect on growth of human Ramos B cells (human Ramos B cells): no effect | Percent Lck activity remaining [1]: 86 ± 46% | Effect on growth of ts2 and ts25 mutant viruses (in words) [4]: reproducibly inhibited the growth | Effect on growth of ts2 and ts25 vaccinia virus, FIG. 1 (in words) [4]: inhibited the growth | Inhibition of growth of ts2 and ts25, single experiment (FIG. 1) ([4]; 100 µM): 99% | Inhibition of growth of vaccinia virus over 24 hours ([4]; 100 µM): 86-99% | Effect on growth of VSV (in words) [5]: essentially no effect | Effect on growth of VSV, FIG. 1 (in words) [5]: not the growth of VSV | Inhibition of growth of VSV (in words) [5]: slight | IC50 [2]: 2.5 µM | inhibition at 10 µM [2]: ≥ 87% | remaining activity at 10 µM [2]: 12 ± 14%

O=C(O)C=Cc1ccc[c]([Sb](=[O])([OH])[OH])c1 [Compound 13778-J, 3-(3-stibonophenyl)prop-2-enoic acid]
Effect on growth of wild-type vaccinia virus (in words) (wild-type vaccinia virus): inhibited the growth | Percent Lck activity remaining [1]: 79 ± 9% | Effect on B1 kinase activity in vitro (in words) [2]: inhibiting B1 almost not at all; also recorded: stimulated B1 in vitro

2-methylnaphthalene-bis(hexachlorocyclopentadiene) adduct [reference compound]
Effect on growth of ts2 and ts25 vaccinia virus, FIG. 1 (in words) [4]: did not inhibit | Effect on growth of ts2 or ts25 vaccinia virus (in words) [4]: no effect

CN[C@@H]1C[C@H]2O[C@@](C)([C@@H]1OC)n1c3ccccc3c3c4c(c5c6ccccc6n2c5c31)C(=O)NC4 [staurosporine, reference compound]
Effect on B1 kinase activity in vitro (in words) [2]: inhibited B1 or F10 kinase

Nc1nc(N)c(/N=N/c2ccc(C(=O)O)c(O)c2)c(N)n1 [Compound 117285-R, 2-hydroxy-4-(2,4,6-triaminopyrimidin-5-yl)diazenyl-benzoic acid]
Effect on virus growth in HeLa cell culture (in words) (wild-type vaccinia virus): no apparent effect | Percent Lck activity remaining [1]: 76 ± 25% | IC50 [2]: 1 µM | inhibition at 10 µM [2]: ≥ 87% | remaining activity at 10 µM [2]: 4 ± 2%

CCc1c(O)c2c(c(O)c1C(C)=O)C(=O)c1c(cc(O)c(C(=O)O)c1C(=O)O)C2=O [Compound 170008-Y, 2-acetyl-7,8-bis(dihydroxymethylidene)-3-ethyl-9-hydroxy-anthracene-1,4,6,10-tetrone]
Effect on virus growth in HeLa cell culture (in words) (wild-type vaccinia virus): no apparent effect | Percent Lck activity remaining [1]: 81% | IC50 [2]: 2.5 µM | inhibition at 10 µM [2]: ≥ 87% | remaining activity at 10 µM [2]: 12%

O=C(O)C1CCCCC1c1c2ccc(=O)c(O)c-2oc2c(O)c(O)ccc12 (stereo not drawn) [Compound 119910-U, 2-(4,5,6-trihydroxy-3-oxo-xanthen-9-yl)cyclohexane-1-carboxylic acid]
Effect on virus growth in HeLa cell culture (in words) (wild-type vaccinia virus): no apparent effect | Toxic effects in mammals [3]: no toxic effects were observed | Percent Lck activity remaining [1]: 59% | Effect on Lck activity (in words) [1]: minimally inhibited | IC50 [2]: 3.5 µM | inhibition at 10 µM [2]: ≥ 87% | remaining activity at 10 µM [2]: 0%

O=C(O)c1cccc(/N=N/c2c(S(=O)(=O)O)ccc3c2C(=O)c2ccccc2C3=O)c1O [Compound 125908-P, 3-(9,10-dioxo-2-sulfo-anthracen-1-yl)diazenyl-2-hydroxy-benzoic acid]
Effect on virus growth in HeLa cell culture (in words) (wild-type vaccinia virus): no apparent effect | Percent Lck activity remaining [1]: 53% | Effect on Lck activity (in words) [1]: minimally inhibited | remaining activity at 10 µM [2]: 23%

O=C(O)CCc1c2ccc(=O)c(O)c-2oc2c(O)c(O)ccc12 [Compound 119915-Z, 3-(4,5,6-trihydroxy-3-oxo-xanthen-9-yl)propanoic acid]
Effect on virus growth in HeLa cell culture (in words) (wild-type vaccinia virus): no apparent effect | Toxic effects in mammals [3]: no toxic effects were observed | Percent Lck activity remaining [1]: 78% | IC50 [2]: 3 µM | inhibition at 10 µM [2]: ≥ 87% | remaining activity at 10 µM [2]: 1%

CC1C2C=CC1C(c1c3ccc(=O)c(O)c-3oc3c(O)c(O)ccc13)C2C(=O)O (stereo not drawn) [Compound 119913-X, 7-methyl-6-(4,5,6,-trihydroxy-3-oxo-xanthen-9-yl)-bicyclo[2.2.1]hetp-2-ene-5-carboxylic acid]
Effect on growth of wild-type vaccinia virus (in words) (wild-type vaccinia virus): inhibited the growth | Toxic effects in mammals [3]: no toxic effects were observed | Percent Lck activity remaining [1]: 56% | Effect on Lck activity (in words) [1]: minimally inhibited | Effect on growth of ts2 and ts25 mutant viruses (in words) [4]: reproducibly inhibited the growth | IC50 [2]: 2.5 µM | inhibition at 10 µM [2]: ≥ 87% | remaining activity at 10 µM [2]: 1%
